Measured values reported in ChEMBL document CHEMBL2095176, “GSK Tuberculosis Screening Data”.
In brackets after ≈: the same amount, converted by molar mass.

These compounds were tested on Mycobacterium tuberculosis variant bovis BCG (assay: microbe, parasite or virus in culture).
Assay type: functional
Compound `CC(C)N1CCN(c2nc(CCN3CCN(c4cccc(C(F)(F)F)c4C#N)CC3)cs2)CC1` has an MIC90 of 5.5 µM (≈ 2.71 µg/mL). In the case of `CCc1nnc(NC(=O)c2cccc(C(=O)Nc3nnc(CC)s3)n2)s1`, the MIC90 was 1.5 µM (≈ 0.584 µg/mL). `CCOc1ccc(-c2nnc(NC(=O)c3cnc(Cl)c(Cl)c3)o2)cc1` was tested, and the MIC90 was 9.6 µM (≈ 3.64 µg/mL). Compound `c1coc(-c2nnc(Sc3ccnc(N4CCN(c5ccncc5)CC4)n3)n2CCCN2CCOCC2)c1` has an MIC90 of 2.8 µM (≈ 1.49 µg/mL). For `c1ccc(-c2ccc(CN3CCC4(CC3)OCCc3sccc34)s2)cc1`, the MIC90 was 4.7 µM (≈ 1.79 µg/mL). `O=C(c1cnn(C(=O)c2ccco2)c1)c1ccccc1O` was tested, and the MIC90 was 2.5 µM (≈ 0.706 µg/mL). In the case of `COc1ccc(Nc2ccccc2NC(=O)c2ccc(O)nc2)cc1`, the MIC90 was 9 µM (≈ 3.02 µg/mL). `CN1CC[C@@H](Oc2cc(-c3noc(-c4ccc(Br)s4)n3)ccc2C(F)(F)F)C1` showed an MIC90 of 8.4 µM (≈ 3.98 µg/mL). In the case of `COc1ccc(-c2ccc(Nc3cccc(S(=O)(=O)CCN(C)Cc4cccs4)c3)nc2)cn1`, the MIC90 was 7.9 µM (≈ 3.91 µg/mL). `CCCOc1c(Br)cc(CNCC)cc1OCC` showed an MIC90 of 7.8 µM (≈ 2.47 µg/mL). For `Cc1ccc2nc(C)c(C(=O)NCC(C)C)n2c1`, the MIC90 was 4.8 µM (≈ 1.18 µg/mL). `O=C(COCC(=O)Nc1nc(-c2ccccn2)cs1)Nc1nc(-c2ccccn2)cs1` showed an MIC90 of 4 µM (≈ 1.81 µg/mL). Compound `CN1CCc2c(cccc2NC(=O)c2cc(Br)cc3c2OCC3)C1` has an MIC90 of 9.8 µM (≈ 3.8 µg/mL). `Cc1ccc2nc(C(F)(F)F)c(C(=O)NCc3cccs3)n2c1` was tested, and the MIC90 was 1.2 µM (≈ 0.407 µg/mL). In the case of `Nc1nonc1-c1nc2c(-c3ccccc3)nccc2n1C1CCNCC1`, the MIC90 was 0.5 µM (≈ 0.181 µg/mL). `Cc1cc2c(NC(=O)NC3CCN(c4ccc(C(F)(F)F)cn4)CC3)cccc2c(C)n1` showed an MIC90 of 3.1 µM (≈ 1.37 µg/mL). `CCOc1ccc(-n2nc3c(C)nnc(NCc4ccccc4)c3c2C)cc1` showed an MIC90 of 4.8 µM (≈ 1.79 µg/mL). Work on `CN(C)CCN(Cc1ccc(-c2cccc(CN)c2)cc1)C(=O)CCC1CCCC1` yielded an MIC90 of 9.9 µM (≈ 4.04 µg/mL). For `CCc1ccc(S(=O)(=O)Nc2cc(CN3CCN(CC4CC4)CC3)ccc2C)cc1`, the MIC90 was 9.6 µM (≈ 4.11 µg/mL). In the case of `O=c1oc(-c2ccccc2F)nc2scc(-c3ccccc3)c12`, the MIC90 was 4 µM (≈ 1.29 µg/mL). Work on `CCCCN1CCC(Cc2noc(-c3cc(Cl)c(N)c4c3OCCO4)n2)C1` (stereo not given) yielded an MIC90 of 6.9 µM (≈ 2.71 µg/mL). Compound `COc1ccc(O)c(C(=O)c2cnn(C(=O)c3cccs3)c2)c1` has an MIC90 of 1.8 µM (≈ 0.591 µg/mL). In the case of `O=C(Nc1ccccc1-c1nc(Cl)cs1)OCCOC1CCNCC1`, the MIC90 was 7.6 µM (≈ 2.9 µg/mL). With `CN(C)CCCC(=O)Nc1[nH]nc2cnc(-c3cncc(-c4ccccc4)c3)cc12` the MIC90 was 8.4 µM (≈ 3.36 µg/mL). In the case of `O=C(CCc1nc2ccccc2oc1=O)N[C@@H]1CCC(=O)N[C@H]1c1ccsc1`, the MIC90 was 6.4 µM (≈ 2.54 µg/mL). In the case of `CC1=Nc2ccccc2CN1CC(O)c1cc(Br)cs1` (stereo not given), the MIC90 was 8.4 µM (≈ 2.95 µg/mL). Work on `O=C(Nc1ccc(OC(F)(F)F)cc1)NC1CCCCC1` yielded an MIC90 of 4.8 µM (≈ 1.45 µg/mL). Work on `COc1ccc(N(C(=O)CNc2ccccc2Nc2ccc(Cl)cc2)C(C)C)cc1` yielded an MIC90 of 2.6 µM (≈ 1.1 µg/mL). Compound `COCCN(C)Cc1ccc(-c2cc(-c3c[nH]nc3-c3cccc(C)n3)ccn2)cc1` has an MIC90 of 6 µM (≈ 2.48 µg/mL). `CC(C)c1ccc(NC(=O)c2ccc(C(=O)NC3CCCNC3)cc2)cc1` (stereo not given) was tested, and the MIC90 was 6.2 µM (≈ 2.27 µg/mL). `O=C(c1cnn(C(=O)c2ccco2)c1)c1cc(F)ccc1O` was tested, and the MIC90 was 4.2 µM (≈ 1.26 µg/mL). Work on `O=C(Cn1c(SCc2ccccc2F)nc2ccncc21)Nc1ccc(Br)cc1F` yielded an MIC90 of 8.3 µM (≈ 4.06 µg/mL). In the case of `FC(F)(F)c1ccc2c(N3CCCNCC3)ncc(-c3ccccc3)c2n1`, the MIC90 was 4.8 µM (≈ 1.79 µg/mL). For `Cc1ccc2sc(N(CCCn3ccnc3)C(=O)c3cccs3)nc2c1C`, the MIC90 was 9.5 µM (≈ 3.77 µg/mL). Work on `COc1cccc(C(=O)Nc2nc(-c3ccccn3)cs2)c1` yielded an MIC90 of 7.6 µM (≈ 2.37 µg/mL). `CC(=O)NCCn1c(Sc2ccnc(N3CCN(c4ccncc4)CC3)n2)nnc1-c1ccccc1` showed an MIC90 of 4 µM (≈ 2.01 µg/mL). With `O=C(CCCSc1ccccc1)NNC(=O)c1cccs1` the MIC90 was 3.6 µM (≈ 1.15 µg/mL). `Cc1c(Cl)cc(F)cc1S(=O)(=O)NCCCn1nc(Cl)c(N2CCCNCC2)cc1=O` showed an MIC90 of 7.9 µM (≈ 3.89 µg/mL). For `O=C(Nc1cccc(C(=O)N2CCCCC2c2nc3ccccc3s2)c1)c1cccs1` (stereo not given), the MIC90 was 0.1 µM (≈ 0.0448 µg/mL). With `Cc1ccc2nc(NC(=O)c3cc(C)nc4c3c(C)nn4C(C)C)sc2c1` the MIC90 was 7.6 µM (≈ 2.88 µg/mL). In the case of `O=C(Nc1nnc(-c2ccc(Cl)cc2)o1)c1ccc(F)cc1`, the MIC90 was 3.9 µM (≈ 1.24 µg/mL). `Cc1ccc(-n2cc3c(-c4ccc(Cl)cc4)nnc(C)c3n2)cc1` showed an MIC90 of 5.7 µM (≈ 1.91 µg/mL). For `Cc1ccc(-n2ncc3c(SCC(=O)NNC(=O)c4ccco4)ncnc32)cc1`, the MIC90 was 3.6 µM (≈ 1.47 µg/mL). `O=C(COc1ccccc1F)Nc1nc(-c2ccccn2)cs1` showed an MIC90 of 8.7 µM (≈ 2.87 µg/mL). For `O=C(NC1CCN(Cc2ccsc2)C1)c1sccc1-c1cccc(Cl)c1` (stereo not given), the MIC90 was 9 µM (≈ 3.63 µg/mL). For `Cc1nn(-c2nc(-c3ccccn3)nc3ccsc23)c(N)c1C#N`, the MIC90 was 7 µM (≈ 2.33 µg/mL). `O=c1c2sc(-c3ccc(Cl)cc3)cc2ncn1-c1ccc(OCCN2CCCC2)c(Cl)c1` gave an MIC90 of 2.1 µM (≈ 1.02 µg/mL). For `COc1ccc2cc(C(=O)Nc3ccc(C4CCN(C)CC4)cc3)sc2c1`, the MIC90 was 2.9 µM (≈ 1.1 µg/mL). `CC1=NN(C(=O)c2ccco2)C(O)(c2ccccc2)C1` (stereo not given) showed an MIC90 of 4.2 µM (≈ 1.14 µg/mL). `FC(F)(F)c1ccc2c(N3CCNCC3)ncc(-c3ccsc3)c2n1` was tested, and the MIC90 was 9.4 µM (≈ 3.43 µg/mL). Compound `CCN(CC)CCCn1c(Cc2ccccc2)nnc1Sc1ccnc(N2CCN(c3ccncc3)CC2)n1` has an MIC90 of 2.9 µM (≈ 1.58 µg/mL). In the case of `O=C(Cc1c(Cl)cccc1Cl)Nc1nc(-c2ccccn2)cs1`, the MIC90 was 9.4 µM (≈ 3.42 µg/mL). Work on `CC(=CC(=O)NC12CC3CC(CC(C3)C1)C2)c1cccc(Cl)c1` yielded an MIC90 of 7.8 µM (≈ 2.57 µg/mL). `CN(Cc1ccccc1)c1ncc(-c2ccc(CNCC3CCCO3)cc2)cn1` (stereo not given) was tested, and the MIC90 was 8.7 µM (≈ 3.38 µg/mL). For `CCCn1nc(C(=O)N2CCN(c3ccccc3F)CC2)c2ccccc2c1=O`, the MIC90 was 8.7 µM (≈ 3.43 µg/mL).
